Among the test systems are ACHN; DMS-114; HCC 2998; HCT-116; HCT-15; HT-29; KM-20L2; M19-MEL; NCI-H460; RXF 393; SF-268; SF-295; SF-539; SN12C; UACC-257; XF498; HOP-18; HOP-92.
What all share (assay): NCI-60 cell line screen, 48 h

Molecules are shown by their SMILES.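 Following 48 hours of exposure in 96-well plates, responses at five concentrations were used to interpolate endpoints linearly. GI50 = concentration required for 50% inhibition of growth.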 Active and inactive are the calls of the source. No stated cut-off is given here; in the data, active = GI50 up to about 1.1 µM and inactive = higher.

With `CCOC(=O)[C@H]1Nc2c(cccc2[N+](=O)[O-])C2c3ccccc3CC21` (stereo not given in full), the GI50 was 28.4 µM (inactive) with ACHN; > 100 µM (inactive) in the test with DMS-114; > 100 µM (inactive) with HCC 2998; > 100 µM (inactive) in the test on HCT-116; more than 100 µM in the test on HCT-15; 18.3 µM (inactive) in the test on HT-29. Further, the GI50 in the test with KM-20L2 was > 100 µM (inactive); in the test on M19-MEL, > 100 µM (inactive); in the test on NCI-H460 it was > 100 µM (inactive); with RXF 393 it was 3.15 µM (inactive); in the test with SF-268, > 100 µM (inactive); in the test with SF-295, 35.6 µM (inactive). Further, the GI50 in the test with SF-539 is > 100 µM (inactive); in the test on SN12C, > 100 µM (inactive); in the test on UACC-257 it was 27.7 µM (inactive); with XF498, > 100 µM (inactive).
For `Nc1nc(SCCC/C=C/I)nc2c1ncn2C1OC(CO)C(O)C1O` (stereo not given), the GI50 is > 202 µM (inactive) in the test on ACHN; > 202 µM (inactive) in the test on DMS-114; > 202 µM (inactive) in the test with HCT-116; more than 202 µM in the test on HCT-15; > 202 µM (inactive) in the test on HOP-18; > 202 µM (inactive) in the test with HOP-92. For the same compound, the GI50 in the test with HT-29, in the test on KM-20L2, in the test on M19-MEL, in the test with NCI-H460, in the test on SF-268 and in the test on SF-295 was > 202 µM (inactive) each time. The GI50 with SF-539, in the test on SN12C, with UACC-257 and in the test on XF498 was > 202 µM (inactive) throughout.
`CCCCCC/C(CC(=O)CCC(=O)NCCc1ccccc1)=N\NC(=O)c1ccc2ccccc2c1O`: the GI50 in the test with ACHN was 28.2 µM (inactive); in the test on HCC 2998, 53.3 µM (inactive); in the test with HCT-116, 29.9 µM (inactive); in the test with HOP-18 it was 12.1 µM (inactive); in the test with HOP-92, 33 µM (inactive); in the test on HT-29, 55.3 µM (inactive). The GI50 in the test on KM-20L2 is 35.1 µM (inactive); in the test with M19-MEL, 23.3 µM (inactive); in the test on NCI-H460, 36.5 µM (inactive); in the test with RXF 393, 50.4 µM (inactive); with SF-268, 22.6 µM (inactive); in the test with SF-295, 48 µM (inactive). Besides, the GI50 is 49.5 µM (inactive) in the test with SN12C, 30.1 µM (inactive) with UACC-257 and 63 µM (inactive) in the test on XF498.
As for `CCCCCCCCCCC(C)CCCCCCC(=O)O` (stereo not given), the GI50 in the test on ACHN was > 100 µM (inactive); in the test on DMS-114, > 100 µM (inactive); with HCC 2998, > 100 µM (inactive); with HCT-116, > 100 µM (inactive); in the test with HCT-15, more than 100 µM; in the test on HOP-18, > 100 µM (inactive). The GI50 in the test with HOP-92, with HT-29, with M19-MEL, with NCI-H460, with RXF 393 and with SF-268 was > 100 µM (inactive) each time. In addition, the GI50 in the test on SF-295, in the test on SF-539, with SN12C and with UACC-257 was > 100 µM (inactive) each time.
Turning to `CS(=O)(=O)OCC1=C(COS(C)(=O)=O)C(=O)c2c(O)ccc(O)c2C1=O`, the GI50 was > 100 µM (inactive) in the test with ACHN; > 100 µM (inactive) with DMS-114; > 100 µM (inactive) in the test with HCC 2998; > 100 µM (inactive) in the test on HCT-116; more than 100 µM in the test with HCT-15; > 100 µM (inactive) in the test on HOP-18. For the same compound, the GI50 with HOP-92, in the test on HT-29, in the test on KM-20L2, in the test on SF-268, in the test on SF-295 and with SF-539 was > 100 µM (inactive) each time. Besides, the GI50 in the test on SN12C and with UACC-257 was > 100 µM (inactive) in each case.
In the case of `CC1(C)CCc2cc3c(cc2O1)OC(C)(C)CC3=O`, the GI50 was 88.9 µM (inactive) with ACHN; 40.9 µM (inactive) in the test on DMS-114; 71.1 µM (inactive) in the test with HCT-116; 91.8 µM in the test with HCT-15; 17.5 µM (inactive) in the test on HOP-92; 35.6 µM (inactive) with HT-29. Also, the GI50 in the test on M19-MEL is 88.7 µM (inactive); in the test on NCI-H460, > 100 µM (inactive); in the test on SF-268, > 100 µM (inactive); in the test with SF-295, > 100 µM (inactive); in the test with SF-539, > 100 µM (inactive); in the test with SN12C it was 65.5 µM (inactive). In addition, the GI50 in the test with XF498 was 50.8 µM (inactive).
As to `C#Cc1c(C)c(/C=C/C(C)=C\C(=O)OC)n(C)c1C`, the GI50 with ACHN is 47.8 µM (inactive); with DMS-114, 19 µM (inactive); in the test with HCC 2998 it was > 100 µM (inactive); in the test with HCT-15, 92.9 µM; with HOP-18 it was > 100 µM (inactive); in the test with HOP-92, > 100 µM (inactive). In addition, the GI50 in the test on HT-29 is 28.6 µM (inactive); in the test on KM-20L2, 46.6 µM (inactive); in the test on M19-MEL, > 100 µM (inactive); in the test with NCI-H460, 63.7 µM (inactive); in the test on SF-268, 68.5 µM (inactive); with SF-295 it was > 100 µM (inactive). The GI50 is 67.5 µM (inactive) in the test on SF-539, > 100 µM (inactive) in the test with SN12C, > 100 µM (inactive) in the test on UACC-257 and > 100 µM (inactive) in the test with XF498.
Take `O=C1C2=C(c3ccccc31)C(c1ccc(Cl)cc1)NC(S)=N2` (stereo not given): the GI50 was 42.7 µM (inactive) in the test on ACHN; 22.7 µM (inactive) in the test on DMS-114; 15.1 µM (inactive) in the test with HCT-116; 18.1 µM with HCT-15; 16 µM (inactive) in the test with HOP-92; 33.8 µM (inactive) in the test with HT-29. Moreover, the GI50 is 20.4 µM (inactive) with KM-20L2; 20 µM (inactive) in the test on M19-MEL; 34.8 µM (inactive) in the test with NCI-H460; 17.4 µM (inactive) in the test with SF-268; 15.5 µM (inactive) in the test on SF-295; 15.7 µM (inactive) with SF-539. For the same compound, the GI50 in the test on SN12C is 17.2 µM (inactive); in the test on UACC-257 it was 41.8 µM (inactive).
With `Cc1c2ccnc(-c3ccccc3)c2cc2c1[nH]c1ccccc12`, the GI50 was 1.69 µM (inactive) in the test with DMS-114; 3.07 µM (inactive) in the test on HCC 2998; 2.12 µM (inactive) in the test on HCT-116; 0.773 µM in the test on HCT-15; 2.15 µM (inactive) with HOP-18; 1.25 µM (inactive) in the test with HOP-92. Also, the GI50 was 0.887 µM (active) in the test with HT-29; 2.61 µM (inactive) in the test on KM-20L2; 0.959 µM (active) in the test with M19-MEL; 1.06 µM (active) in the test on NCI-H460; 2.42 µM (inactive) in the test on RXF 393; 4.31 µM (inactive) in the test on SF-268. The GI50 in the test with SF-295 was 0.879 µM (active); with SF-539, 2.45 µM (inactive); in the test with SN12C, 2.99 µM (inactive); with UACC-257, 2.7 µM (inactive).
For `COc1ccc(/C=N/NC(=O)NCCCN(C)C)cc1`, the GI50 with ACHN was > 100 µM (inactive); with DMS-114, > 100 µM (inactive); with HCT-116 it was > 100 µM (inactive); in the test on HCT-15 it was more than 100 µM; in the test with HOP-18 it was > 100 µM (inactive); with HT-29, > 100 µM (inactive). Moreover, the GI50 with NCI-H460, in the test with RXF 393, in the test on SF-268, with SF-295, with SF-539 and with SN12C was > 100 µM (inactive) in each case. Also, the GI50 with UACC-257 and in the test on XF498 was > 100 µM (inactive) each time.

(Values after ChEMBL document CHEMBL1201862, “PubChem BioAssay data set” (2004).)
